Reference: the supplement of paper PMC10307832

Tests used:
Test in all cases: relative viability (nuclei count vs DMSO), 5 days (fraction); higher = more cells survive
GSK-J4 + Linsitinib = compound: CCOC(=O)CCNc1cc(N2CCc3ccccc3CC2)nc(-c2ccccn2)n1 [GSK-J4] + C[C@]1(O)C[C@@H](c2nc(-c3ccc4ccc(-c5ccccc5)nc4c3)c3c(N)nccn32)C1 [Linsitinib] (partner 1 µM)
In short: (§1)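 Dosing by pin tool came one day after lung cancer cell lines were seeded in 1536-well plates, using either one drug or a fixed anchor-drug dose plus five library-drug doses (not always all listed) in √10 steps. After 5 days, nuclei were counted on 4× images. Relative viability is treated-well nuclei count divided by vehicle-well nuclei count, and values are medians of duplicate plates.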

GSK-J4 + Vorinostat = compound: CCOC(=O)CCNc1cc(N2CCc3ccccc3CC2)nc(-c2ccccn2)n1 [GSK-J4] + O=C(CCCCCCC(=O)Nc1ccccc1)NO [Vorinostat] (partner 1 µM)
In short: as §1

GSK-J4 + Phenformin = compound: CCOC(=O)CCNc1cc(N2CCc3ccccc3CC2)nc(-c2ccccn2)n1 [GSK-J4] + N=C(N)NC(=N)NCCc1ccccc1 [Phenformin] (partner 250 µM)
In short: as §1

AZ3146 + Alpelisib = compound: CN1CCC(CC1)OC2=CC(=C(C=C2)NC3=NC=C4C(=N3)N(C(=O)N4C)C5CCCC5)OC [AZ3146] + Cc1nc(NC(=O)N2CCC[C@H]2C(N)=O)sc1-c1ccnc(C(C)(C)C(F)(F)F)c1 [Alpelisib] (partner 2 µM)
In short: as §1

UMC-11 was tested, and the relative viability (GSK-J4 + Linsitinib; first compound 0.5 µM) was 0.97, the relative viability (GSK-J4 + Linsitinib; first compound 1.581 µM) was 0.967 and the relative viability (GSK-J4 + Linsitinib; first compound 5 µM) was 1.02. It also gave a relative viability (GSK-J4 + Linsitinib; first compound 15.81 µM) of 0.983, a relative viability (GSK-J4 + Linsitinib; first compound 50 µM) of 0.572 and a relative viability (GSK-J4 + Vorinostat; first compound 0.5 µM) of 0.418. For the same cell line, the relative viability (GSK-J4 + Vorinostat; first compound 1.581 µM) was 0.364, the relative viability (GSK-J4 + Vorinostat; first compound 5 µM) was 0.492 and the relative viability (GSK-J4 + Vorinostat; first compound 15.81 µM) was 0.437. It also gave a relative viability (GSK-J4 + Vorinostat; first compound 50 µM) of 0.187, a relative viability (GSK-J4 + Phenformin; first compound 0.5 µM) of 0.276 and a relative viability (GSK-J4 + Phenformin; first compound 5 µM) of 0.241. It also gave a relative viability (GSK-J4 + Phenformin; first compound 15.81 µM) of 0.306, a relative viability (GSK-J4 + Phenformin; first compound 50 µM) of 0.294 and a relative viability (AZ3146 + Alpelisib; first compound 0.08 µM) of 1.08. For the same cell line, the relative viability (AZ3146 + Alpelisib; first compound 0.253 µM) was 0.98, the relative viability (AZ3146 + Alpelisib; first compound 0.8 µM) was 1.11 and the relative viability (AZ3146 + Alpelisib; first compound 2.53 µM) was 0.861. For the same cell line, the relative viability (AZ3146 + Alpelisib; first compound 8 µM) was 0.296.
